Holding throughout (format): functional
The subject of experiment [1] is Staphylococcus aureus. Put plainly: Antibacterial activity against Staphylococcus aureus Smith.
Another experiment has as its system Streptococcus pneumoniae. Put plainly: Antibacterial activity against Streptococcus pneumoniae IID554. Particulars: Streptococcus pneumoniae, IID554; read-out: MIC.
The next experiment relates to Enterococcus faecalis. The experiment is described as follows: Antibacterial activity against Enterococcus faecalis ATCC 29212.
For the next experiment, the system named is Escherichia coli. Put plainly: Antibacterial activity against Escherichia coli ATCC 25922.
The test system of the next experiment is Acinetobacter baumannii. The experiment is described as follows: Antibacterial activity against Acinetobacter baumannii IID876.
Another experiment relates to Pseudomonas aeruginosa. Put plainly: Antibacterial activity against Pseudomonas aeruginosa PAO1.
Another experiment relates to Haemophilus influenzae. The experiment is described as follows: Antibacterial activity against Haemophilus influenzae ATCC 49247.
In the next experiment the test system is Moraxella catarrhalis. Put plainly: Antibacterial activity against Moraxella catarrhalis ATCC 25238.
The subject of the next experiment is Enterococcus faecium. Put plainly: Antibacterial activity against VanA-type vancomycin-resistant Enterococcus faecium A2373.
Experiment [2] deals with Staphylococcus aureus. The experiment is described as follows: Ratio of MIC for quinolone-resistant Staphylococcus aureus MS5935 to MIC for quinolone-sensitive Staphylococcus aureus.
Setting [3] is: Staphylococcus aureus, Smith, read-out: MIC.
[4] abbreviates: Enterococcus faecalis, ATCC 29212, read-out: MIC.
Where [5] appears, read: Escherichia coli, ATCC 25922, read-out: MIC.
Where [6] appears, read: Acinetobacter baumannii, IID876, read-out: MIC.
Where [7] appears, read: Pseudomonas aeruginosa, PAO1, read-out: MIC.
Setting [8] is: Enterococcus faecium, A2373, read-out: MIC.
The mark [9] stands for this setting: Haemophilus influenzae, ATCC 49247, read-out: MIC.

The record followed here is ChEMBL document CHEMBL3425423, “Hydroxy tricyclic 1,5-naphthyridinone oxabicyclooctane-linked novel bacterial topoisomerase inhibitors as broad-spectrum antibacterial agents-SAR of RHS moiety (Part-3)” (Bioorg Med Chem Lett, 2015).

≈ marks a conversion by molar mass, not a printed value. Some results are limits rather than exact numbers.

For `CC1COc2cnc(CNC34CCC(C[C@]5(O)Cn6c(=O)ccc7ncc(F)c5c76)(CC3)OC4)cc2O1` (stereo in doubt; 22), the MIC came out at 4 µg/mL (≈ 7.87 µM) in the experiment on Staphylococcus aureus [1] (setting [3]); 4 µg/mL (≈ 7.87 µM) with Streptococcus pneumoniae; 32 µg/mL (≈ 62.9 µM) with Enterococcus faecalis; 32 µg/mL (≈ 62.9 µM) in the experiment with Escherichia coli; 32 µg/mL (≈ 62.9 µM) with Acinetobacter baumannii; 32 µg/mL (≈ 62.9 µM) in the experiment on Pseudomonas aeruginosa. The MIC in the experiment with Haemophilus influenzae, in the experiment with Moraxella catarrhalis and with Enterococcus faecium was 32 µg/mL (≈ 62.9 µM) in each case.

On to `O=c1[nH]c2c(F)ccc(F)c2cc1CNC12CCC(C[C@]3(O)Cn4c(=O)ccc5ncc(F)c3c54)(CC1)OC2`, for which the MIC in the experiment with Staphylococcus aureus [1] (setting [3]) amounted to 2 µg/mL (≈ 3.71 µM); in the experiment with Streptococcus pneumoniae it was 2 µg/mL (≈ 3.71 µM); with Enterococcus faecalis (setting [4]), 32 µg/mL (≈ 59.4 µM); with Escherichia coli (setting [5]), 64 µg/mL (≈ 119 µM); in the experiment on Acinetobacter baumannii (setting [6]), 64 µg/mL (≈ 119 µM); with Pseudomonas aeruginosa (setting [7]), 64 µg/mL (≈ 119 µM). The MIC with Enterococcus faecium (setting [8]) is 64 µg/mL (≈ 119 µM). The Ratio in the experiment with Staphylococcus aureus [2] was under 4.

With `O=c1ccc2ncc(F)c3c2n1C[C@@]3(O)CC12CCC(NCOc3cc(F)ccc3F)(CC1)CO2`, the MIC with Staphylococcus aureus [1] (setting [3]) was 1 µg/mL (≈ 2.05 µM); in the experiment with Streptococcus pneumoniae, 2 µg/mL (≈ 4.1 µM); with Enterococcus faecalis (setting [4]), 16 µg/mL (≈ 32.8 µM); in the experiment with Escherichia coli (setting [5]), 32 µg/mL (≈ 65.6 µM); in the experiment with Acinetobacter baumannii (setting [6]), 4 µg/mL (≈ 8.21 µM); in the experiment on Pseudomonas aeruginosa (setting [7]) it was 64 µg/mL (≈ 131 µM). For the same compound, the MIC in the experiment with Enterococcus faecium (setting [8]) is 32 µg/mL (≈ 65.6 µM). In the experiment on Staphylococcus aureus [2], the Ratio is under 4.

As for `O=c1ccc2ncc(F)c3c2n1C[C@@]3(O)CC12CCC(NC/C(F)=C/c3cc(F)ccc3F)(CC1)CO2`, the MIC was found to be 4 µg/mL (≈ 7.76 µM) in the experiment on Staphylococcus aureus [1] (setting [3]); 8 µg/mL (≈ 15.5 µM) with Streptococcus pneumoniae; 16 µg/mL (≈ 31 µM) in the experiment on Enterococcus faecalis (setting [4]); 16 µg/mL (≈ 31 µM) in the experiment with Escherichia coli (setting [5]); 16 µg/mL (≈ 31 µM) in the experiment with Acinetobacter baumannii (setting [6]); 16 µg/mL (≈ 31 µM) in the experiment with Pseudomonas aeruginosa (setting [7]). In addition, the MIC with Enterococcus faecium (setting [8]) came out at 16 µg/mL (≈ 31 µM). For the same compound, in the experiment with Staphylococcus aureus [2], the Ratio is given as under 4.

For the compound `O=c1ccc2ncc(F)c3c2n1C[C@@]3(O)CC12CCC(NCc3cc4c(cn3)OCS4)(CC1)CO2`, the MIC in the experiment on Staphylococcus aureus [1] (setting [3]) turned out to be 0.25 µg/mL (≈ 0.503 µM); in the experiment on Streptococcus pneumoniae, 0.25 µg/mL (≈ 0.503 µM); in the experiment with Enterococcus faecalis (setting [4]), 2 µg/mL (≈ 4.03 µM); in the experiment on Escherichia coli (setting [5]), 8 µg/mL (≈ 16.1 µM); in the experiment on Acinetobacter baumannii (setting [6]), 0.5 µg/mL (≈ 1.01 µM); in the experiment with Pseudomonas aeruginosa (setting [7]), 32 µg/mL (≈ 64.4 µM). For the same compound, the MIC in the experiment on Haemophilus influenzae (setting [9]) stood at 4 µg/mL (≈ 8.06 µM); with Moraxella catarrhalis (Moraxella catarrhalis, ATCC 25238, read-out: MIC), 0.5 µg/mL (≈ 1.01 µM); with Enterococcus faecium (setting [8]) it was 8 µg/mL (≈ 16.1 µM).

`O=c1ccc2ncc(F)c3c2n1C[C@@]3(O)CC12CCC(NCc3cc(-c4cccs4)on3)(CC1)CO2`: the MIC turned out to be 0.25 µg/mL (≈ 0.492 µM) with Staphylococcus aureus [1] (setting [3]); 0.5 µg/mL (≈ 0.983 µM) in the experiment on Streptococcus pneumoniae; 2 µg/mL (≈ 3.93 µM) in the experiment with Enterococcus faecalis (setting [4]); 16 µg/mL (≈ 31.5 µM) with Escherichia coli (setting [5]); 16 µg/mL (≈ 31.5 µM) in the experiment with Acinetobacter baumannii (setting [6]); 16 µg/mL (≈ 31.5 µM) in the experiment with Pseudomonas aeruginosa (setting [7]). The MIC in the experiment with Enterococcus faecium (setting [8]) amounted to 16 µg/mL (≈ 31.5 µM). Moreover, the Ratio in the experiment with Staphylococcus aureus [2] is listed as under 4.

With `O=C1COc2ccc(C(=O)NC34CCC(C[C@]5(O)Cn6c(=O)ccc7ncc(F)c5c76)(CC3)OC4)nc2N1`, the MIC came to 0.25 µg/mL (≈ 0.479 µM) in the experiment with Staphylococcus aureus [1]; 1 µg/mL (≈ 1.92 µM) in the experiment on Staphylococcus aureus [1] (setting [3]); 4 µg/mL (≈ 7.67 µM) in the experiment with Streptococcus pneumoniae; 8 µg/mL (≈ 15.3 µM) in the experiment on Enterococcus faecalis (setting [4]); 32 µg/mL (≈ 61.4 µM) in the experiment on Escherichia coli (setting [5]); 16 µg/mL (≈ 30.7 µM) in the experiment with Acinetobacter baumannii (setting [6]). The MIC was 32 µg/mL (≈ 61.4 µM) in the experiment on Pseudomonas aeruginosa (setting [7]) and 16 µg/mL (≈ 30.7 µM) with Enterococcus faecium (setting [8]). Moreover, the Ratio with Staphylococcus aureus [2] was under 4.

As to `O=c1cnc2ccc(CNC34CCC(C[C@]5(O)Cn6c(=O)ccc7ncc(F)c5c76)(CC3)OC4)nc2[nH]1`, the MIC was 8 µg/mL (≈ 15.9 µM) in the experiment on Staphylococcus aureus [1] (setting [3]); 16 µg/mL (≈ 31.7 µM) in the experiment with Streptococcus pneumoniae; 32 µg/mL (≈ 63.4 µM) in the experiment with Enterococcus faecalis (setting [4]); 32 µg/mL (≈ 63.4 µM) with Escherichia coli (setting [5]); 32 µg/mL (≈ 63.4 µM) in the experiment on Acinetobacter baumannii (setting [6]); 32 µg/mL (≈ 63.4 µM) with Pseudomonas aeruginosa (setting [7]). The MIC with Enterococcus faecium (setting [8]) came out at 32 µg/mL (≈ 63.4 µM). In addition, the Ratio in the experiment with Staphylococcus aureus [2] was under 4.

For the compound `CN1CCOc2nc(CNC34CCC(C[C@]5(O)Cn6c(=O)ccc7ncc(F)c5c76)(CC3)OC4)ccc21`, the MIC with Staphylococcus aureus [1] (setting [3]) was 2 µg/mL (≈ 3.94 µM); in the experiment with Streptococcus pneumoniae, 4 µg/mL (≈ 7.88 µM); with Enterococcus faecalis (setting [4]), 16 µg/mL (≈ 31.5 µM); with Escherichia coli (setting [5]) it was 16 µg/mL (≈ 31.5 µM); with Acinetobacter baumannii (setting [6]), 16 µg/mL (≈ 31.5 µM); with Pseudomonas aeruginosa (setting [7]), 16 µg/mL (≈ 31.5 µM). For the same compound, in the experiment on Enterococcus faecium (setting [8]), the MIC worked out at 16 µg/mL (≈ 31.5 µM). The Ratio in the experiment on Staphylococcus aureus [2] is given as under 4.

For the compound `O=c1ccc2ncc(F)c3c2n1C[C@@]3(O)CC12CCC(NCCCc3cc(F)ccc3F)(CC1)CO2`, the MIC in the experiment with Staphylococcus aureus [1] (setting [3]) turned out to be 0.5 µg/mL (≈ 1 µM); in the experiment on Streptococcus pneumoniae, 1 µg/mL (≈ 2 µM); with Enterococcus faecalis (setting [4]) it was 16 µg/mL (≈ 32 µM); with Escherichia coli (setting [5]) it was 16 µg/mL (≈ 32 µM); with Acinetobacter baumannii (setting [6]), 2 µg/mL (≈ 4 µM); in the experiment with Pseudomonas aeruginosa (setting [7]), 32 µg/mL (≈ 64.1 µM). Moreover, the MIC in the experiment on Enterococcus faecium (setting [8]) was found to be 32 µg/mL (≈ 64.1 µM). For the same compound, the Ratio with Staphylococcus aureus [2] is under 4.

Regarding `O=c1ccc2ncc(F)c3c2n1C[C@@]3(O)CC12CCC(NCc3cc4c(cn3)OCCC4)(CC1)CO2`, the MIC came to 0.13 µg/mL (≈ 0.264 µM) in the experiment with Staphylococcus aureus [1] (setting [3]); 0.5 µg/mL (≈ 1.02 µM) with Streptococcus pneumoniae; 4 µg/mL (≈ 8.12 µM) with Enterococcus faecalis (setting [4]); 16 µg/mL (≈ 32.5 µM) in the experiment with Escherichia coli (setting [5]); 4 µg/mL (≈ 8.12 µM) with Acinetobacter baumannii (setting [6]); 32 µg/mL (≈ 65 µM) in the experiment on Pseudomonas aeruginosa (setting [7]). Also, the figures for the MIC with Haemophilus influenzae (setting [9]) and with Enterococcus faecium (setting [8]) were 4 µg/mL (≈ 8.12 µM) and 16 µg/mL (≈ 32.5 µM), respectively.
